Values of other authors in US20160143876A1, “MAINTENANCE THERAPY REGIME/REGIMEN FOR THE TREATMENT OF ACNE” (GALDERMA RESEARCH & DEVELOPMENT, priority 2008, published 2016).

Assays:
[1] = applied as monotherapy
acne = conditions: in vivo

COc1ccc(-c2ccc3cc(C(=O)O)ccc3c2)cc1C12CC3CC(CC(C3)C1)C2 [Adapalene, 6-[3-(1-adamantyl)-4-methoxyphenyl]-2-naphtoic acid]
Tolerability profile compared to other topical retinoids [1]: more favorable tolerability profile

CC1=C(/C=C/C(C)=C/C=C/C(C)=C\C(=O)O)C(C)(C)CCC1 [isotretinoin]
Patients who relapse after treatment (acne): up to 21%
